Experimental data taken from patent publication EP1410783B1, “Foaming compositions” (Beiersdorf AG, priority 2001, dated 2003).

Experiment: Polarity of lipids (no method described)
Format: physicochemical
[1] = further lipids with polarity ≥ 30 mN/m, listed by INCI name
[2] = lipids of the oil phase with polarity ≤ 30 mN/m, listed by manufacturer, trade name and INCI name

Compound | Polarität [1] | Polarität [2]
CCCCC(CC)COC(=O)CCCCCC(C)C (stereo not drawn) [2- Ethylhexyl Isononanoate] | 31,0 mN/m | 
CCCCOC(=O)CCCCC(=O)OCCCC [Cetiol B, Dibutyl Adipate] |  | 14,3 mN/m
CC(C)CCCCCCCOC(=O)C(C)(C)C [DUB VCI 10, Isodecyl Neopentanoate] |  | 29,9 mN/m
CCCCC(CC)C(=O)OCCC(C)CC(C)(C)C (stereo not drawn) [Dermol 98, 2-Ethylhexanosäure 3,5,5 Trimethylester] |  | 26,2 mN/m
CCCCCCCC(=O)OCCCCCCCC(C)C [Dermol 108, Isodecyl Octanoate] |  | 29,6 mN/m
CC(C)CCCCCCCOC(=O)CC(C)CC(C)(C)C (stereo not drawn) [Dermol 109, Isodecyl 3,5,5 Trimethyl Hexanoate] |  | 29,1 mN/m
CCCCCCCCCC(=O)OCCCC(C)C [Dermol IHD, Isohexyldecanoate] |  | 29,7 mN/m
CCCCCCOCCCCCC [Dihexyl Ether] |  | 29,2 mN/m
CCCCCCCC/C=C\CCCCCCCC(=O)OCCOCCOCC [Ethoxydiglycol Oleate] | 40,5 mN/m | 
CCCCCCCCCCC(CO)CCCCCCCC (stereo not drawn) [Eutanol G, Octyldodecanol] |  | 24,8 mN/m
CCCCCCC(CCCC)C(=O)O (stereo not drawn) [Isocarb 12, Butyl Octanoicacid] |  | 22,1 mN/m
CCCCCCC(CO)CCCC (stereo not drawn) [Isofol 12, Butyl Octanol] |  | 17,4 mN/m
CCCCCCCCC(CO)CCCCCC (stereo not drawn) [Isofol 16, Hexyl Decanol] |  | 24,3 mN/m
CCCCCCCCCCCCCC(C)C [Isohexadecane] | 43,8 mN/m | 
CCCCCCCCCCCCCCCCCC(=O)OC(C)C [Isopropylstearat, Isopropyl Stearate] |  | 21,9 mN/m
CCCCCCCCCCCCCC(=O)OCC(CCCCCCCC)CCCCCCCCCC (stereo not drawn) [M.O.D., Octyldodeceyl Myristate] |  | 22,1 mN/m
CCCCCCCCOC(=O)CCCCCCCCCCCCCCC(C)C [Octyl Isostearate] | 31,6 mN/m | 
CCCCCCCCCCCCCCCCCCOC(=O)CCCCCC [Tegosoft SH, Stearyl Heptanoate] |  | 17,8 mN/m
CC(CCOC(=O)CC(C)CC(C)(C)C)CC(C)(C)C (stereo not drawn) [Trimethylhexyl Isononanoate] | 31,1 mN/m | 
CCCCCCCC(=O)OCC(COC(=O)CCCCCCC)OC(=O)CCCCCCC [Trivent OCG, Tricaprylin] |  | 20,2 mN/m
Cetearyl Isononanoate [Cetiol SN] |  | 28,6 mN/m
Cyclomethicone [DC Fluid 345] |  | 28,5 mN/m
Cyclopolydimethylsiloxan [Dow Corning Fluid 244] |  | 28,5 mN/m
Dioctylcyclohexane | 39,0 mN/m | 
Isocetyl Palmitate | 36,2 mN/m | 
Isoeikosan | 41,9 mN/m | 
Isotridecyl 3,5,5 Trimethylhexanonanoate [Dermol 139] |  | 24,5 mN/m
PEG 2 Diethylenhexanoate [Dermol 488] |  | 10,1 mN/m
Phenyl Trimethicone [Silikonöl VP 1120] |  | 22,7 mN/m
Triisostearin [Prisorine 2041 GTIS] |  | 2,4 mN/m
